{"source": "patent US20210121456A1", "about": "“USE OF METHYLNALTREXONE TO ATTENUATE TUMOR PROGRESSION” (Salix Pharmaceuticals, Inc., priority 2014, published 2021)", "key": {"[1]": {"test_system": "subjects with advanced medical illness and opioid-induced constipation", "experiment": "Study 1: double-blind, randomized, placebo-controlled study of subcutaneous methylnaltrexone", "assay_type": "in vivo, human", "method": "A double-blind, randomized, placebo-controlled study of subcutaneous methylnaltrexone (MNTX) was conducted in subjects with advanced medical illness and a current history of opioid-induced constipation. To satisfy eligibility criteria for enrollment, subjects were required to be on stable doses of laxatives and opioid analgesics. In the context of the study, a stable dose of opioid analgesics was defined as no reduction in the dose of opioid analgesic of ≥50% for at least three days before the first dose of MNTX. A stable dose of laxatives was defined as having a standing laxative order (and not PRN, or as-needed) for at least three days before the first dose of MNTX. A diagnosis of constipation was provided if the subject had fewer than 3 bowel movements during the previous week by history and no clinically notable laxation in the 24 hours before the first dose of MNTX, or no clinical notable laxation in the 48 hours before the first dose of MNTX.\nEligible subjects were randomized to one of two treatment groups: MNTX 0.15 mg/kg (e.g., 8 mg for patients <62 kg body weight and 12 mg for patients ≥62 kg body weight) or placebo. Each treatment was administered every other day (QOD) subcutaneously for two weeks. Injections were administered subcutaneously in either the shoulder area, buttocks, abdomen, thighs or extremities. Rescue-laxatives, enemas or manual disimpactions were not administered within 4 hours before or after each dose of MNTX. Endpoints included: (1) the proportion of subjects with rescue-free laxation within 4 hours of the first dose of study drug, and (2) the proportion of subjects with ≥2 rescue-free laxations within 4 hours post dosing over 4 doses of study drug (the first week of the two-week treatment period). One hundred and thirty-four (134) subjects were enrolled and evaluated, including 78 patients with advanced cancers and 56 patients with other advanced illness, including COPD, cardiovascular disease and severe neurologic disease. Seventy-one (71) of the 134 subjects were randomized to the placebo group, and sixty-two (62) of the 134 subjects were randomized to MNTX treatment group. The co-primary efficacy endpoints of this study were: 1) the proportion of patients with laxation within 4 hours after the first dose of study drug, and 2) the proportion of patients with laxation within 4 hours after 2 of the first 4 doses (the first week of double-blind treatment). The primary endpoint was laxation within 4 hours. Secondary endpoints included the use of rescue medication and frequency of symptoms within 24 hours. […]"}, "[2]": {"experiment": "Plasma levels after oral administration", "assay_type": "in vivo", "method": "Methylnaltrexone is rapidly absorbed after oral administration from the stomach and bowel. Initial plasma levels of the drug are seen within 5-10 minutes of the administration of non-enteric coated compound."}, "[3]": {"settings": "MNTX 0.15 mg/kg SC QOD, double-blind"}, "[4]": {"settings": "regardless of the time after dose"}}, "data": [{"smiles": "C[N@+]1(CC2CC2)CC[C@]23c4c5ccc(O)c4O[C@H]2C(=O)CC[C@@]3(O)[C@H]1C5.[Br-]", "note": "[MNTX, (R)—N-(cyclopropylmethyl) noroxymorphone methobromide]", "values": [{"measurement": "subjects with improvement in constipation distress", "setting": "[1]; Day 1", "result": 53, "unit": "%"}, {"measurement": "subjects for whom the bowel status was improved (second global rating, 'Likewise')", "setting": "[1]; Day 7", "result": 69.4, "unit": "%"}, {"measurement": "subjects who rated their bowel status improved (global rating scale)", "setting": "[1]; Day 7", "result": 73.5, "unit": "%"}, {"measurement": "subjects with improvement in constipation distress", "setting": "[1]; Day 7", "result": 64, "unit": "%"}, {"measurement": "subjects for whom the bowel status was improved (second global rating, 'Likewise')", "setting": "[1]; Day 14", "result": 67.9, "unit": "%"}, {"measurement": "subjects who rated their bowel status improved (global rating scale)", "setting": "[1]; Day 14", "result": 67.9, "unit": "%"}, {"measurement": "subjects with improvement in constipation distress", "setting": "[1]; Day 14", "result": 60, "unit": "%"}, {"measurement": "subjects with rescue-free laxation within 4 hours after at least 2 of the first 4 doses", "setting": "[1]; MNTX 0.15 mg/kg SC QOD", "result": 51.6, "unit": "%"}, {"measurement": "subjects with rescue-free laxation within 4 hours after at least 2 of the first 4 doses (number)", "setting": "[1]; MNTX 0.15 mg/kg SC QOD", "result": "Thirty-two"}, {"measurement": "subjects with rescue-free laxation within 4 hours after at least 4 of the maximum 7 doses", "setting": "[1]; MNTX 0.15 mg/kg SC QOD", "result": 38.7, "unit": "%"}, {"measurement": "subjects with rescue-free laxation within 4 hours after at least 4 of the maximum 7 doses (number)", "setting": "[1]; MNTX 0.15 mg/kg SC QOD", "result": "twenty-four"}, {"measurement": "subjects with rescue-free laxation within 4 hours after the first dose", "setting": "[1]; [3]", "result": 48.4, "unit": "%"}, {"measurement": "subjects with rescue-free laxation within 4 hours after the first dose (number)", "setting": "[1]; [3]", "result": 30, "unit": "subjects"}, {"measurement": "median time to rescue-free laxation after the first dose", "setting": "[1]; based on the subjects who had laxation", "result": 1.0, "unit": "h"}, {"measurement": "subjects using enemas", "setting": "[1]; during double-blind treatment (baseline 12.7%)", "result": 23.8, "unit": "%"}, {"measurement": "subjects using osmotic agents", "setting": "[1]; during the study (baseline 30.2%)", "result": 33.3, "unit": "%"}, {"measurement": "subjects with at least one rescue-free laxation", "setting": "[1]; first week of treatment", "result": 95.2, "unit": "%"}, {"measurement": "rescue-free laxations within 4 hours after any dose rated as moderate, considerable, or great difficulty", "setting": "[1]; in vivo", "result": 33.0, "unit": "%"}, {"measurement": "subjects with rescue-free laxations within 4 hours after any individual dose", "setting": "[1]; range over doses", "result": "37.3-48.4%"}, {"measurement": "subjects with rescue-free laxations within 24 hours after any individual dose", "setting": "[1]; range over doses", "result": "55.4-66.0%"}, {"measurement": "subjects with at least three rescue-free laxations per week", "setting": "[1]; [4]", "result": 67.7, "unit": "%"}, {"measurement": "subjects with at least three rescue-free laxations per week (number)", "setting": "[1]; [4]", "result": 42, "unit": "subjects"}, {"measurement": "watery bowel movements", "setting": "[1]; rescue-free laxations within 4 hours after any dose", "result": 15.9, "unit": "%"}, {"measurement": "subjects with at least one rescue-free laxation", "setting": "[1]; second week of treatment", "result": 91.2, "unit": "%"}, {"measurement": "plasma levels with an enteric coating which prevents gastric absorption", "setting": "[2]; enteric coated, oral", "result": "lower plasma levels"}, {"measurement": "time to initial plasma levels after oral administration", "setting": "[2]; non-enteric coated compound", "result": "5 to 10", "unit": "min"}]}]}
